Data from US20080058269A1, “Insulin Releasing Peptides” (priority 2003, published 2008).
Read-outs that look alike come from different tables or passages of the source.

Key:
[1] = system: BRIN-BD11 cells; assay: Acute insulin release from BRIN-BD11 cells cultured overnight with forskolin, PMA or pertussis toxin; type: cell-based, rat; conditions: acute test at 5.6 mM glucose; for Stimulatory effect on insulin secretion in cells cultured overnight with PMA: 10 nM PMA overnight (protein kinase C pathway); for Stimulatory effect on insulin secretion in cells cultured overnight with pertussis toxin: 0.1 μg/ml pertussis toxin overnight (G-protein pathway); for Stimulatory effect on insulin secretion in cells cultured overnight with forskolin: 25 μM forskolin overnight (desensitised cyclic AMP-protein kinase A pathway)
Description: FIG. 8 illustrates the dependence of the stimulatory effects of 1653.2 Da purified peptide (peak 1.10) from Agalychnis calcarifer on intracellular pathways mediated by protein kinase A (forskolin), protein kinase C (PMA) or pertussis toxin-sensitive G-proteins. Legend: Acute effects of the 13 amino acid 1653.2 Da purified peptide (peak 1.10) from Agalychnis calcarifer on forskolin and PMA on insulin secretion from BRIN-BD11 cells cultured overnight in the absence (control) and presence of 25 μM forskolin, 10 nM PMA or 0.1 μg/ml pertussis toxin. Acute incubations were performed at 5.6 mM glucose. Values are the mean ±SEM for 8 separate observations. ***P<0.001 compared with 5.6 mM glucose alone under same culture conditions. ^ΔΔΔp<0.001 compared with respective test reagent following control culture.
FIG. 9 illustrates the dependence of the stimulatory effects of 1641.7 Da, 1662.6 Da, 1619.8 Da and 1650.5 Da purified peptides (peaks 21, 22, 23 and 24) from Bombina variegata on intracellular pathways mediated by protein kinase A (forskolin), protein kinase C (PMA) or pertussis toxin-sensitive G-proteins. Legend: Acute effects of 1641.7, 1662.6, 1619.8 and 1650.5 Da purified peptides (peaks 21, 22, 23 and 24) from Bombina variegata on forskolin and PMA on insulin secretion from BRIN-BD11 cells cultured overnight in the absence (control) and presence of 25 μM forskolin, 10 nM PMA or 0.1 μg/ml pertussis toxin. Acute incubations were performed at 5.6 mM glucose. Values are the mean ±SEM for 8 separate observations. **P<0.001 compared with 5.6 mM glucose alone under same culture conditions. ^ΔP<0.001 compared with respective test reagent following control culture.
FIG. 10 illustrates the dependence of the stimulatory effects of 4920.4 Da and 4801.2 Da purified peptides (peaks 5.1 and 5.4) from Rana saharica on intracellular pathways mediated by protein kinase A (forskolin), protein kinase C (PMA) or pertussis toxin-sensitive G-proteins. Legend: Acute effects of 4920.4 and 4801.2 Da purified peptides (peaks 5.1 and 5.4) from Rana saharica on forskolin and PMA on insulin secretion from BRIN-BD11 cells cultured overnight in the absence (control) and presence of 25 μM forskolin, 10 nM PMA or […] pertussis toxin. Acute incubations were performed at 5.6 mM glucose. Values are the mean ±SEM for 8 separate observations. ***P<0.001 compared with 5.6 mM glucose alone under same culture conditions. ^ΔΔP<0.001 compared with respective test reagent following control culture.
(§1) Culture of insulin-secreting cells: Clonal rat insulin-secreting BRIN-BD11 cells were cultured in RPMI-1640 tissue culture medium containing 10% (v/v) fetal calf serum, 1% (v/v) antibiotics (100 U/ml penicillin, 0.1 mg/ml streptomycin) and 11.1 mM glucose. The production and characterisation of BRIN-BD11 cells are described elsewhere. Cells were maintained in sterile tissue culture flasks (Corning, Glass Works, UK) at 37° C. in an atmosphere of 5% CO2 and 95% air using LEEC incubator (Laboratory Technical Engineering, Nottingham, UK). In three experimental series using purified peptides from Agalychnis calcarifer, Bombina variegata and Rana saharica cells were cultured overnight with 25 μM forskolin, 10 nM PMA or 0.1 μg/ml pertussis toxin prior to acute tests.
Acute insulin release studies: Insulin release from BRIN-BD11 cells was determined using cell monolayers [McClenaghan N H, Barnett C R, Ah-Sing E, Abdel-Wahab Y H, O'Harte F P, Yoon T W, Swanston-Flatt S K and Flatt P R 1996 Characterization of a novel glucose-responsive insulin-secreting cell line, BRIN-BD11, produced by electrofusion. Diabetes 45 1132-1140]. The cells were harvested with the aid of trypsin/EDTA (Gibco), seeded into 24-multiwell plates (Nunc, Rosklide, Denmark) at a density of […] per well, and allowed to attach overnight. […]

[2] = system: BRIN-BD11 cells; type: cell-based, rat; conditions: for Insulin-releasing action in the presence of verapamil (in words): 50 μM verapamil, calcium channel blocker; for Insulin-releasing action in cells depolarised with KCl (in words): 30 mM KCl
Description: as §1
Acute insulin release studies: Insulin release from BRIN-BD11 cells was determined using cell monolayers [McClenaghan N H, Barnett C R, Ah-Sing E, Abdel-Wahab Y H, O'Harte F P, Yoon T W, Swanston-Flatt S K and Flatt P R 1996 Characterization of a novel glucose-responsive insulin-secreting cell line, BRIN-BD11, produced by electrofusion. Diabetes 45 1132-1140]. The cells were harvested with the aid of trypsin/EDTA (Gibco), seeded into 24-multiwell plates (Nunc, Rosklide, Denmark) at a density of […] per well, and allowed to attach overnight. Prior to acute test, cells were preincubated for 40 min at 37° C. in a 1.0 ml Krebs Ringer bicarbonate buffer (115 mM NaCl, 4.7 mM KCl, 1.28 MM CaCl2, 1.2 MM KH2PO4, 1.2 mM MgSO4, 10 mM NaHCO3, 5 g/l bovine serum albumin, pH 7.4) supplemented with 1.1 mM glucose. Test incubations were performed for 20 min at 37° C. using the same buffer supplemented with 5.6 mM glucose in the absence (control) and presence of various venom fractions, peaks (equivalent to approx. 25 μl dried HPLC fraction) or test agents as indicated in the Figures. Cell viability after 20 min test incubations was assessed by modified neutral red assay [Hunt S M, Chrzanowska C, Barnnett C R, Brand H N and Fawell J K 1987 A comparison of in vitro cytotoxicity assays and their application to water samples. Alternatives to Laboratory Animals 15 20-29]. After incubation, aliquots of buffer were removed and stored at −20° C. for insulin radiomnimmunoassay [Flatt P R. and Bailey C J 1981 Abnormal plasma glucose and insulin responses in heterozygous lean (ob/+) mice. Diabetologia 20 573-577].

Substance	Stimulatory effect on insulin secretion in cells cultured overnight with PMA [1]	Stimulatory effect on insulin secretion in cells cultured overnight with pertussis toxin [1]	Stimulatory effect on insulin secretion in cells cultured overnight with forskolin [1]	Insulin-releasing action in the presence of verapamil (in words) [2]	Insulin-releasing action in cells depolarised with KCl (in words) [2]	Insulin secretion (ng/10^6 cells/20 min) ([2]; Table 8, no addition, 5.6 mM glucose, control 1.68 ± 0.16)	Insulin secretion (ng/10^6 cells/20 min) ([2]; Table 8, peptide plus KCl (30 mM), 5.6 mM glucose)	Insulin secretion (ng/10^6 cells/20 min) ([2]; Table 8, peptide plus verapamil (50 μM), 5.6 mM glucose)	Insulin release (ng/10^6 cells/20 mins) ([2]; peptides from Agalychnis calcarifer, 5.6 mM glucose, no-peptide control 1.71 ± 0.12)	Insulin release (ng/10^6 cells/20 mins) [2] [ng/10^6 cells/20 mins]	Insulin secretion (ng/10^6 cells/20 min) ([2]; Table 9, no addition, 5.6 mM glucose, 8 observations, control 1.69 ± 0.17)	Insulin secretion (ng/10^6 cells/20 min) ([2]; Table 9, peptide plus KCl (30 mM), 5.6 mM glucose, 8 observations)	Insulin secretion (ng/10^6 cells/20 min) ([2]; Table 9, peptide plus verapamil (50 μM), 5.6 mM glucose, 8 observations)	Insulin secretion (ng/10^6 cells/20 min) ([2]; Table 10, no addition, 5.6 mM glucose, 8 observations, control 1.69 ± 0.17)	Insulin secretion (ng/10^6 cells/20 min) ([2]; Table 10, peptide plus KCl (30 mM), 5.6 mM glucose, 8 observations)	Insulin secretion (ng/10^6 cells/20 min) ([2]; Table 10, peptide plus verapamil (50 μM), 5.6 mM glucose, 8 observations)	Insulin release (ng/10^6 cells/20 mins) ([2]; peptides from Rana saharica, 5.6 mM glucose, mean ± SEM, 3 observations, no-peptide control 1.87 ± 0.06)
RRKPLFPFIPRPK [Peptide 1.10, 13 amino acid 1653.2 Da purified peptide from Agalychnis calcarifer]	did not affect	did not affect	abolished	not affected	clearly evident	2.75 ± 0.12	16.45 ± 0.10 ΔΔ*** ng/10^6 cells/20 min	3.54 ± 0.20 ΔΔ*** ng/10^6 cells/20 min	2.61 ± 0.11								
Pyr-DSFGNQWARGHFM-amidated (HELM PEPTIDE1{[Glp].D.S.F.G.N.Q.W.A.R.G.H.F.M.[am]}$$$$V2.0; SMILES CSCC[C@H](NC(=O)[C@H](Cc1ccccc1)NC(=O)[C@H](Cc1c[nH]cn1)NC(=O)CNC(=O)[C@H](CCCNC(=N)N)NC(=O)[C@H](C)NC(=O)[C@H](Cc1c[nH]c2ccccc12)NC(=O)[C@H](CCC(N)=O)NC(=O)[C@H](CC(N)=O)NC(=O)CNC(=O)[C@H](Cc1ccccc1)NC(=O)[C@H](CO)NC(=O)[C@H](CC(=O)O)NC(=O)[C@@H]1CCC(=O)N1)C(N)=O) [Peptide 22, peptide from Bombina variegata, 72% ID to bombesin]	did not affect	did not affect	abolished	not affected	clearly evident					4.75 ± 0.13	3.23 ± 0.14	13.69 ± 1.43ΔΔΔ*** ng/10^6 cells/20 min	3.05 ± 0.09				
GIFSKLAGKKLKNLLISGLKNVGKEVGMDVVRTGIDIAGCKIKGEC [Peptide 5.4, peptide from Rana saharica matching Esculentin-1B]	abolished	abolished	abolished	not inhibited	clearly evident									2.89 ± 0.19	11.84 ± 0.98ΔΔΔ*** ng/10^6 cells/20 min	2.79 ± 0.10	3.30 ± 0.22
